In the first assay the target is T1, Glutamate receptor ionotropic, NMDA 2C (Rattus norvegicus, UniProt Q00961). The experiment in a line: Inhibition activity against binding of phencyclidine receptor was determined by the displacement of [3H]-TCP of whole rat brain minus cerebellum. Format: tissue-based. A general note: Displacement assays read how much labelled ligand stays bound in the presence of the test substance.
T1 sequence (Q00961 whole entry): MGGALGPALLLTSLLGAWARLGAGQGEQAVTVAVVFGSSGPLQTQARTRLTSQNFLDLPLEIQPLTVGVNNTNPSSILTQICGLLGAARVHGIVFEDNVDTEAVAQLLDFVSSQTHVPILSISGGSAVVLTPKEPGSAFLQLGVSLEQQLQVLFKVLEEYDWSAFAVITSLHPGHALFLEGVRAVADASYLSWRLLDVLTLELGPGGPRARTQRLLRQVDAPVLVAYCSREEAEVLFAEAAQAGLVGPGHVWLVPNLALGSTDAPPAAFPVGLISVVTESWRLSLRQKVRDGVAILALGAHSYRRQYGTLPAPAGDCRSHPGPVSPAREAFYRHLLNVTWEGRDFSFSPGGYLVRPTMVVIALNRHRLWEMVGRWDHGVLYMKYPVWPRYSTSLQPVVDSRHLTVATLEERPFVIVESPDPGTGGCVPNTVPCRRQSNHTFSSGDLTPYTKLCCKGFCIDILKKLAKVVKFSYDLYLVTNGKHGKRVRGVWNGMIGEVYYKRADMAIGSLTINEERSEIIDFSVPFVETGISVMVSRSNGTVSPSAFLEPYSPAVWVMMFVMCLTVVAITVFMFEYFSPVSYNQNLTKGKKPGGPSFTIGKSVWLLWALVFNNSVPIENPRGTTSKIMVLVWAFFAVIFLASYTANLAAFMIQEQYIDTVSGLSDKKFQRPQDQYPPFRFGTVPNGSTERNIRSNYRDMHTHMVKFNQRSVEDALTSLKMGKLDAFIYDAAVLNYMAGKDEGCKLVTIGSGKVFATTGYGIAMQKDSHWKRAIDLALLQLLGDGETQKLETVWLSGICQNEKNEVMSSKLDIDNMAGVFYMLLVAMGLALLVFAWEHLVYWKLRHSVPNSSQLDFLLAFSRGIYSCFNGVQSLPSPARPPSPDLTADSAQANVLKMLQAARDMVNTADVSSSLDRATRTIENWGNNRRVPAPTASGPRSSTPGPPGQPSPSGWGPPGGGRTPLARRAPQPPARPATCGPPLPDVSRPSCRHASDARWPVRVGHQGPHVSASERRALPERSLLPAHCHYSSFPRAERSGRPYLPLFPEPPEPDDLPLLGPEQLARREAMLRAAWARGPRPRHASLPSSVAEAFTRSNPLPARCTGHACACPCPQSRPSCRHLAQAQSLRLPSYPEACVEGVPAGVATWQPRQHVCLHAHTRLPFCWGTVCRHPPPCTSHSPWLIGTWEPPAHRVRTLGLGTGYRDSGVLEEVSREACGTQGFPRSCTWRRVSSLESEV
One may read the IC50 as the point on the concentration scale where inhibition reaches its midpoint. Higher therefore signals weaker potency. The molecule `c1ccc(C2(N3CCCCC3)CCCCC2)cc1` [PHENCYCLIDINE] returned an IC50 of 600 nM.

A further assay concerns the target T1, Glutamate receptor ionotropic, NMDA 2C. The experiment in a line: Binding affinity against phencyclidine receptor was determined by the displacement of [3H]TCP of whole rat brain minus cerebellum. In kind it is tissue-based.
The term Ki denotes a measure of affinity in units of concentration, obtained from inhibition or displacement. Higher therefore signals weaker binding. `C[C@H]1CCC[C@@](c2ccccc2)(N2CCCCC2)C1` displayed a Ki of 3300 nM.

Consider `C[C@@H]1CCC[C@](c2ccccc2)(N2CCCCC2)C1`, for which the Ki is 820 nM.

Molecule `C[C@@H]1CCC[C@@](c2ccccc2)(N2CCCCC2)C1` had a Ki of 6800 nM.

For `C[C@H]1CCC[C@](c2ccccc2)(N2CCCCC2)C1`, the Ki was determined as 170 nM.

As to `CC1CCCN(C2(c3ccccc3)CCCCC2)C1` (stereo in doubt; (+)), the Ki is 60 nM.

For `CC1CCCN(C2(c3ccccc3)CCCCC2)C1` (stereo in doubt; (-)), affinity was put at a Ki of 2150 nM.

`c1ccc(C2(N3CCCCC3)CCCCC2)cc1` [PHENCYCLIDINE] showed a Ki of 60 nM.

Source of the values: ChEMBL document CHEMBL1124274, “Synthesis, pharmacological action, and receptor binding affinity of the enantiomeric 1-(1-phenyl-3-methylcyclohexyl)piperidines” (J Med Chem, 1988).
